Reference: publication PMC6197744, “Triazolo[4,5-d]pyrimidines as Validated General Control Nonderepressible 2 (GCN2) Protein Kinase Inhibitors Reduce Growth of Leukemia Cells” (Computational and Structural Biotechnology Journal, 2018)
Values after ≈ are worked out from the molar mass of the structure shown.

Assays:
PERK = molecular target: T1, PERK (Homo sapiens, UniProt Q9NZJ5); assay: radiometric HotSpot kinase assay; type: biochemical; conditions: 10 μM compound, 10 μM ATP; read-out: % Enzyme inhibition at 10 μM, PERK
T1 construct: purchased Reaction Biology Corporation (Malvern, PA)
T1 sequence (Q9NZJ5 30-1116): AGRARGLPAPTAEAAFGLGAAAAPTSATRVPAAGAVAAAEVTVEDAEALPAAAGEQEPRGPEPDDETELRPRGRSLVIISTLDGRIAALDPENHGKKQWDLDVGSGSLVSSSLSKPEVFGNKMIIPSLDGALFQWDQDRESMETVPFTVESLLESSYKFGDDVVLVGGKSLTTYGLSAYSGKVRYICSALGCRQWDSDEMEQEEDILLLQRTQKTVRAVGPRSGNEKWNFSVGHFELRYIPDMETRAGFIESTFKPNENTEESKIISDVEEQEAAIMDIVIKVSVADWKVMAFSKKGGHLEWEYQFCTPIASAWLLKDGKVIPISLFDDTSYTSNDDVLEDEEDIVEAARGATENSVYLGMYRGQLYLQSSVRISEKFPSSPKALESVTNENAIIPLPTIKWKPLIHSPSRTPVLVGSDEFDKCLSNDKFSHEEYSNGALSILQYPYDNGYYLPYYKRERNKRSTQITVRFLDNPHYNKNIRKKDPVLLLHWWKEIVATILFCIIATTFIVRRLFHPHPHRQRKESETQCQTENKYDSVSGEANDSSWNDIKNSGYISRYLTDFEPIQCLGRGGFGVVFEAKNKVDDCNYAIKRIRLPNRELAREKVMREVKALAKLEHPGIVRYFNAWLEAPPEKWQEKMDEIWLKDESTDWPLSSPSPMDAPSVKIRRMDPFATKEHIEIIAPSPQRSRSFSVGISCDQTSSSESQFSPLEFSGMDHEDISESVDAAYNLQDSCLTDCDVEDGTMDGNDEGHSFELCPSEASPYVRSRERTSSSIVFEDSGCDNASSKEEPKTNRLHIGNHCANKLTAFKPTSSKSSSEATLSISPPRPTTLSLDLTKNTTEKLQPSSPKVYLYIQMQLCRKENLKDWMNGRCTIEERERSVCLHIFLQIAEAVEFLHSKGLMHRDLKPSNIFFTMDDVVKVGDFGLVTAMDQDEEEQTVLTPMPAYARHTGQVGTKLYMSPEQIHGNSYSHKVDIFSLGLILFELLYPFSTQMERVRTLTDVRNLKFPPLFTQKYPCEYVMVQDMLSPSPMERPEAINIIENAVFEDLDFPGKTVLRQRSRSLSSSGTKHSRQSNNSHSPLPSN
Method: In vitro compound profiling for recombinant GCN2, PERK, HRI, PKR, or IRE1 kinases were performed at Reaction Biology Corporation (Malvern, PA) using the HotSpot kinase assay. Briefly, all compounds provided for testing were dissolved in 10 mM DMSO stock solutions. […] Specific kinase/substrate mixtures and required cofactors were prepared in reaction buffer (20 mM Hepes (pH 7.5), 10 mM MgCl2, 1 mM EGTA, 0.02% Brij35, 0.02 mg/ml BSA, 0.1 mM Na3VO4, 2 mM DTT, 1% DMSO). Compounds were added to the kinase reaction mixture by Acoustic technology (Echo550; nanoliter range) and incubated for 20 min at room temperature. […] The reaction was incubated or 2 h at room temperature and kinase activity was detected by filter-binding method. IC50 values and curves were generated with GraphPad Prism 7 (GraphPad software).

Kinetic solubility assay = type: physicochemical; conditions: for solubility (in words): PBS pH 7.4; for solubility at 2 h: aqueous buffer, kinetic from dmso stock, PBS pH 7.4, 25 °C
Method: Compound solubility was determined in PBS at pH 7.4 by Pharmaron, Inc. (Beijing, China). Briefly, all compounds and control solutions were prepared in DMSO at concentrations of 10 mM. Diclofenac was used as a positive control. 10 μL or 30 μL of each compound was added into a 96-well plate, followed by adding 990 μL or 970 μL, respectively, of PBS at pH 7.4. A stir stick was added to each well and wells were sealed using a molded PTDE/SIL 96-Well Plate Cover. […] After incubation the samples were transferred into the filter plate and filtered by Vacuum Manifold. The filtered samples were diluted with methanol to obtain 3 μM standards (STD). The samples were analyzed by LC-MS/MS against a standard of known concentration in DMSO. The solubility values of duplicate test compounds were calculated in Microsoft Excel using the following equation, where DF means dilution factor: Sample=AREASample×INJVOLStd×DFSample×STD/AREAStd×INJVOLSample

MALME-3M = assay: NCI-60 one-dose screen; type: cell-based, human; conditions: 48 h; for inhibition at 10 µM: Homo sapiens, Melanoma MALME-3M, read-out: Percent growth inhibition; for increase in cell growth: melanoma cell line MALME-3 M, 10 μM
Method: Compounds 1 and 2 were submitted to the National Cancer Institute NCI-60 Tumor Cell Screening Program (NCI number 800,700 and 800,701, respectively) for evaluation against the 60 cell line NCI panel at a single dose of 10 μM. […] Leukemia and breast cancer cell lines comprised the only cancer groups that were uniformly sensitive to both 1 and 2, with the greatest sensitivity seen in the leukemia SR cell line.
Compounds 1 and 2 were submitted to the NCI for growth inhibition screening against its panel of 60 cancer cell lines. The NCI screening protocol has extensively been described [[53], [54], [55], [56]]. Briefly, cancerous cell lines were grown in RPMI 1640 medium containing 5% fetal bovine serum and 2 mM L-glutamine. Depending on the doubling time of each cell line, 5000–40,000 cells were seeded in 96-well plates for 24 h. Cells were then treated with compounds 1 or 2 at a concentration of 10 μM and incubated for 48 h at 37 °C in a humidified atmosphere containing 5% CO2. The cells were then fixed and stained with sulforhodamine B (SRB) to determine their viability. The data were analyzed using a program called COMPARE to determine the percent growth inhibition of each compound.

SMILES	inhibition at 10 µM (PERK)	solubility (in words) (Kinetic solubility assay)	solubility at 2 h (Kinetic solubility assay)	inhibition at 10 µM (MALME-3M)	increase in cell growth (MALME-3M)
CCn1cc(Nc2ncc3nnn(-c4ccc(C(=O)OC)cc4)c3n2)cn1 [Compound 1, Methyl 4-(5-((1-ethyl-1H-pyrazol-4-yl)amino)-3H-[1,2,3]triazolo[4,5-d]pyrimidin-3-yl)benzoate]	24%	poor	0.65 µM (≈ 0.237 µg/mL)	-27.7%	27.7%
CCOc1ccc(-n2nnc3cnc(Nc4cnn(CC)c4)nc32)cc1 [Compound 2, 3-(4-Ethoxyphenyl)-N-(1-ethyl-1H-pyrazol-4-yl)-3H-[1,2,3]triazolo[4,5-d]pyrimidin-5-amine]	< 10%	poor	0.31 µM (≈ 0.109 µg/mL)	-37.2%	37.2%
